Here are results for 15 molecules from PMC5290066 (Molecular and Cellular Biochemistry, 2016).

“Also recorded” adds a separate entry of the source. Read-outs that look alike come from different tables or passages of the source.

Experiment [1] addresses T1, human Rio1 (Homo sapiens, UniProt Q9BRS2).
T1 construct: Human recombinant kinase Rio1 containing residues 134–494 was expressed and purified as previously reported; made in house
T1 sequence (Q9BRS2 134-494): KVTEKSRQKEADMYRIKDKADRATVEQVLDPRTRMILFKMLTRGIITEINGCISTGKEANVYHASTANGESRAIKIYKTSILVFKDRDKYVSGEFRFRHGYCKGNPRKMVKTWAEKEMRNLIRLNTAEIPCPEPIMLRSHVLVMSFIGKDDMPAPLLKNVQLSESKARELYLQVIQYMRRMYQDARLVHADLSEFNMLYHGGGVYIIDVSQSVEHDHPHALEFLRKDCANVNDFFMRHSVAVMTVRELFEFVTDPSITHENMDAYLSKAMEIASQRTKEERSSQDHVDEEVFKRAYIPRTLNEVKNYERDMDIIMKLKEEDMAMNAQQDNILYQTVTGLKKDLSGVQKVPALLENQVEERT
In words: Rio1 autophosphorylation assay ([γ-32P]ATP). Type of experiment: biochemical. Particulars: 0.5 µM ATP; for IC50: 37 °C, 15 min, read-out: IC50 (µM) ± SD Rio1; for Ki: read-out: Ki (µM) ± SD Rio1. The method, then: Recombinant human protein kinase GST-CK2α was produced in bacteria and purified as described elsewhere. The plasmid carrying the gene encoding human protein kinase Rio1 (residues […]) was kindly gifted by Professor Nicole LaRonde—LeBlanc (University of Maryland, USA). Human recombinant kinase Rio1 containing residues 134–494 was expressed and purified as previously reported with a few modifications.
In order to determine the autophosphorylation of human Rio1, the enzyme was incubated at 37 °C for 15 min in 50 μl samples each containing 1 pmol of human recombinant Rio1 and an appropriate concentration of tested compound (0.01–50 µM). The reaction buffer contained 0.5 µM ATP, [γ-^32P]ATP (specific radioactivity 300–1000 cpm/pmol), 50 mM NaCl, 10 mM Mg^2+, 50 mM Tris–HCl pH 7.5, and 6 mM 2-mercaptoethanol.
(§1) The phosphorylation was terminated by addition of SDS/PAGE sample buffer, and proteins were resolved by electrophoresis, followed by Coomassie Brilliant Blue staining. The gels were dried and ^32P-labelled bands of P2B and Rio1 were excised from the gel, and radioactivity was determined in a scintillation counter (MicroBeta, Perkin Elmer) by Cerenkov counting.
(§2) IC50, K i, K m, and V max values were calculated using GraphPad Prism (version 4.0) software.

Experiment [2] has as its target T2, hCK2α (Homo sapiens, UniProt P68400). The experiment in a line: CK2 phosphorylation assay (P2B substrate, [γ-32P]ATP). It counts as biochemical. Also on record: GST (N); made in house; host or cells: bacteria. Particulars: for IC50 / Ki: 20 µM ATP, P2B protein substrate; for IC50: 37 °C, 5 min, read-out: IC50 (µM) ± SD CK2; for Ki: read-out: Ki (µM) ± SD CK2; for inhibition of CK2 stronger than that of Rio1 (fold): CK2 versus Rio1. The protocol:
Recombinant human protein kinase GST-CK2α was produced in bacteria and purified as described elsewhere.
The reaction buffer contained 20 µM [γ-^32P]ATP (specific radioactivity 300–1000 cpm/pmol), 15 mM Mg^2+, 20 mM Tris–HCl pH 7.5, and 6 mM 2-mercaptoethanol.
as §1, §2

For experiment [3], the target named is T1, human Rio1. The experiment in a line: Steady-state kinetics of Rio1 autophosphorylation (Km for ATP, Vmax) with TIBI. It counts as biochemical. The protocol:
Additionally, the same protocol was followed with the addition of TIBI to the reaction mixture at a concentration of 0.01, 0.05, and 0.1 µM.
as §1, §2

For experiment [4], the target named is T3, hRio1 (Homo sapiens, UniProt Q9BRS2).
T3 construct: Human recombinant kinase Rio1 containing residues 134–494 was expressed and purified as previously reported; made in house
T3 sequence (Q9BRS2 134-494): T1 sequence (Q9BRS2 134-494)
In words: Thermofluor (thermal shift) assay, Rio1. It counts as binding. Particulars: 100 µM TIBI. The method, then:
The procedure was performed according to the protocol described elsewhere with a few modifications. 10-µl reactions containing 50 mM NaCl, 10 mM Mg^2+, 50 mM Tris–HCl pH 7.5, 1 mg/ml hRio1 or hCK2α, and 100 µM TIBI or 5% DMSO (control) were incubated at 4 °C for 30 min. 10 µl of the SYPRO Orange dye was then added to the reactions. The samples were heated from 4 to 98 °C at a rate of 0.2° per second using a thermal cycler (CFX 1000, Bio-Rad). The changes in fluorescence intensity were measured as the temperature increased. Melting temperatures (T m) of hRio1 and CK2 in the presence and absence of TIBI were calculated using Bio-Rad software. The experiment was performed in duplicate.

The target of experiment [5] is T2, hCK2α. The experiment in a line: Thermofluor (thermal shift) assay, CK2α. Type of experiment: binding. To be noted: 100 µM TIBI. The method, then: The procedure was performed according to the protocol described elsewhere with a few modifications. 10-µl reactions containing 50 mM NaCl, 10 mM Mg^2+, 50 mM Tris–HCl pH 7.5, 1 mg/ml hRio1 or hCK2α, and 100 µM TIBI or 5% DMSO (control) were incubated at 4 °C for 30 min. 10 µl of the SYPRO Orange dye was then added to the reactions. […] The changes in fluorescence intensity were measured as the temperature increased. Melting temperatures (T m) of hRio1 and CK2 in the presence and absence of TIBI were calculated using Bio-Rad software. The experiment was performed in duplicate.

Experiment [6] has as its target T3, hRio1. The experiment in a line: Size-exclusion chromatography of Rio1 (oligomeric state). Particulars: 100 µM TIBI, 2 mg/ml hRio1. The method, then: The glass column (200/10 mm) filled with the Sephadex G-200 medium (GE Healthcare) was equilibrated with a buffer containing 10 mM Tris, pH 7.5, 150 mM NaCl, and 6 mM β-mercaptoethanol. In order to calibrate the column, four proteins, namely β-amylase (200 kDa), alcohol dehydrogenase (150 kDa), bovine serum albumin (67 kDa), and ovalbumin (43 kDa), were separately loaded onto the column. 100-µl samples containing 2 mg/ml hRio1 diluted in the equilibration buffer in the presence or absence (control) of 100 µM TIBI were then loaded onto the column. The chromatography was performed at a flow rate 0.2 ml/min using the FPLC system AKTA Purifier 10 (GE Healthcare), and runs were monitored by OD280.
(Size exclusion chromatography separates by hydrodynamic size, large species first.)

Experiment [7] concerns the target T1, human Rio1. In words: Rio1 autophosphorylation assay ([γ-32P]ATP). Type of experiment: biochemical.
Experiment [8] concerns promyelocytic leukemia cell line HL-60. Also on record: method as in PMID 21229880. Particulars: cited from earlier work.
Experiment [9] addresses T1, human Rio1. To be noted: cited from earlier work.
The target of experiment [10] is T3, hRio1. To be noted: cited from earlier work.

T2 sequence (P68400 whole entry): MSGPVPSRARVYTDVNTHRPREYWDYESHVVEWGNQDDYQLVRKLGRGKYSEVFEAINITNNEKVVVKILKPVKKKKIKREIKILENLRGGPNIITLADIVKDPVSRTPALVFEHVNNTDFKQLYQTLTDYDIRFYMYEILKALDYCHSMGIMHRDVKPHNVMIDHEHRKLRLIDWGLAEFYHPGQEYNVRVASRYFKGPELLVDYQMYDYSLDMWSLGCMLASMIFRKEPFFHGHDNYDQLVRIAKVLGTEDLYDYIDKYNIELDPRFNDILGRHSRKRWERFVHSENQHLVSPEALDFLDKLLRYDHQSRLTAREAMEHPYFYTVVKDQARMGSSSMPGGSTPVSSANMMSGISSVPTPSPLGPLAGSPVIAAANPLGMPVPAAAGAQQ

With `CN(C)c1nc2c(Br)c(Br)c(Br)c(Br)c2n1C` [1Me-DMAT, 4,5,6,7-tetrabromo-N,N,1-trimethylbenzimidazole-2-amine], at human Rio1 [1], the IC50 is 0.61 ± 0.02 µM. In addition, on hCK2α [2], the IC50 stood at 0.39 ± 0.012 µM, the inhibition constant Ki was 0.167 µM and the “inhibition of CK2 stronger than that of Rio1 (fold)” value (“inhibition … (fold)” for short) was “twofold stronger”.
For `O=C(O)c1ccc2c(c1)nc(Nc1cccc(Cl)c1)c1ccncc12` [CX-4945, Silmitasertib, reference compound], on human Rio1 [1], the IC50 was 0.37 ± 0.011 µM and the Ki came out at 0.209 ± 0.008 µM.
In the same order, the values of `CN(C)c1nc2c(Br)c(Br)c(Br)c(Br)c2[nH]1` [DMAT, 2-dimethylamino-4,5,6,7-tetrabromobenzimidazole, reference compound] are 0.19 ± 0.009 µM and 0.1 µM.
Regarding `Cc1nc2c(I)c(I)c(I)c(I)c2[nH]1` [K92, 4,5,6,7-tetraiodo-2-methylbenzimidazole], at human Rio1 [1], the half-maximal inhibitory concentration (IC50) stood at 0.19 ± 0.011 µM and the Ki was 0.1 ± 0.004 µM. At hCK2α [2], the IC50 was 0.066 ± 0.003 µM, the Ki is 0.025 ± 0.001 µM and the “inhibition … (fold)” value is reported as “fourfold stronger”.
As to `Brc1c(I)c(Br)c2nc[nH]c2c1I` [K95, 4,6-dibromo-5,7-diiodobenzimidazole], at human Rio1 [1], the 50% inhibitory concentration (IC50) was 0.29 ± 0.009 µM and the Ki is 0.164 ± 0.007 µM. Moreover, on hCK2α [2], the half-maximal inhibitory concentration (IC50) turned out to be 0.3 ± 0.009 µM and the Ki was 0.128 ± 0.005 µM.
Regarding `Brc1c(Br)c(Br)c2[nH]nnc2c1Br` [TBB, 4,5,6,7-Tetrabromo-2-azabenzimidazole, reference compound], at human Rio1 [1], the IC50 stood at 1.74 ± 0.05 µM and the inhibition constant (Ki) was 0.983 ± 0.03 µM.
In the same order, the values of `Brc1c(Br)c(Br)c2[nH]cnc2c1Br` [TBI, 4,5,6,7-tetrabromobenzimidazole] are 0.33 ± 0.007 µM and 0.186 ± 0.009 µM.
Take `CC(CC(=O)O)Sc1nc2c(Br)c(Br)c(Br)c(Br)c2[nH]1` (stereo not shown) [TBSB, 3-(4,5,6,7-tetrabromobenzimidazole-2-ylsulfanyl)butanoic acid]: on human Rio1 [1], the IC50 is 0.65 ± 0.03 µM and the Ki came out at 0.367 ± 0.012 µM. Further, on hCK2α [2], the IC50 turned out to be 0.33 ± 0.013 µM, the Ki was 0.141 ± 0.005 µM and the “inhibition … (fold)” value is “twofold stronger”.
On to `Cn1c(SCC(=O)O)nc2c(Br)c(Br)c(Br)c(Br)c21` [TBTS, [(4,5,6,7-tetrabromo-N,N,1-trimethylbenzimidazole-2-yl)sulfanyl]acetic acid], for which the Ki came to 0.39 ± 0.011 µM at human Rio1 [1] and 0.257 ± 0.009 µM at hCK2α [2]. Moreover, at hCK2α [2], the IC50 amounted to 0.6 ± 0.03 µM.
As to `Clc1c(Cl)c(Cl)c2[nH]cnc2c1Cl` [TCI, 4,5,6,7-tetrachlorobenzimidazole], the IC50 on human Rio1 [1] is 1.9 ± 0.07 µM; at hCK2α [2], 9.7 ± 0.3 µM. Also, the Ki at human Rio1 [1] was 1.07 ± 0.04 µM; at hCK2α [2], 4.15 ± 0.1 µM.
The corresponding values for `CC(CC(=O)O)Cn1c(N(C)C)nc2c(Br)c(Br)c(Br)c(Br)c21` (stereo not shown) [TDBB, 3-methyl-4-[4,5,6,7-tetrabromo-2-(dimethylamino)benzimidazole-1-yl]butanoic acid] are 2.17 ± 0.06 µM, 1.51 ± 0.04 µM, 1.23 ± 0.03 µM and 0.647 ± 0.014 µM.
For `NCCNc1nc2c(I)c(I)c(I)c(I)c2[nH]1` [TI-2Am, 4,5,6,7-tetraiodobenzimidazole-2-amine-ethylamine], on human Rio1 [1], the IC50 was 0.23 ± 0.01 µM and the Ki was determined as 0.13 ± 0.005 µM. On hCK2α [2], the IC50 amounted to 0.05 ± 0.002 µM, the Ki worked out at 0.021 ± 0.001 µM and the “inhibition … (fold)” value is given as “ca. sixfold stronger”.
For the molecule `Ic1c(I)c(I)c2[nH]cnc2c1I` [TIBI, 4,5,6,7-tetraiodobenzimidazole], the IC50 at human Rio1 [1] was determined as 0.09 ± 0.005 µM; on human Rio1 [7] (IC50 against Rio1 at 0.01 µM ATP, 0.01 µM ATP) it was 0.046 µM; against human Rio1 [7] (IC50 against Rio1 at 0.1 µM ATP, 0.1 µM ATP), 0.061 µM; against human Rio1 [7] (IC50 against Rio1 at 1 µM ATP, 1 µM ATP), 0.101 µM; at hCK2α [2] it was 0.083 ± 0.003 µM. The inhibition constant Ki on human Rio1 [1] was 0.05 ± 0.002 µM; at hCK2α [2], 0.035 ± 0.001 µM. In addition, the “mode of inhibition of Rio1” value on human Rio1 [3] is given as “strict ATP-competitive inhibitors”. Also, the “Vmax of Rio1 in the presence of TIBI” value at human Rio1 [3] (no shift with increasing TIBI concentration) was determined as 0.09 pmol/s. Also, the ΔTm at 100 µM on hRio1 [4] (bound versus unbound, read-out: shift in melting temperature (Tm) of Rio1) turned out to be 10 °C; on hCK2α [5] (bound versus unbound, read-out: shift in melting temperature (Tm) of CK2α) it was 20 °C. Besides, the “melting temperature (Tm) of bound Rio1” value at hRio1 [4] (unbound enzyme 58.8 °C) worked out at 68.8 °C. Further, the “melting temperature (Tm) of TIBI-bound CK2α” value on hCK2α [5] (unbound enzyme 58.8 °C) turned out to be 78.8 °C. In addition, at hRio1 [6], the “effect on oligomeric state (monomer–tetramer equilibrium) of Rio1” value is given as “does not influence the oligomeric state; also recorded: did not observe any changes in the monomer–tetramer equilibrium”. The proapoptotic activity entry in [8] is “proapoptotic activity”.
On to `CN(C)c1nc2c(I)c(I)c(I)c(I)c2n1C` [TIdiMe, 2-dimethylamino-1-metyl-4,5,6,7-tetraiodobenzimidazole], for which the IC50 at human Rio1 [1] is 0.24 ± 0.008 µM; on hCK2α [2], 0.2 ± 0.006 µM. For the same molecule, the figures for the inhibitory constant (Ki) on human Rio1 [1] and on hCK2α [2] were 0.135 ± 0.005 µM and 0.085 ± 0.003 µM, respectively.
Consider `N#Cc1cn([C@@H]2O[C@H](CO)[C@@H](O)[C@H]2O)c2ncnc(N)c12` [Toyocamycin, toyocamycin, reference compound], for which, on human Rio1 [1], the IC50 came out at 3.66 ± 0.09 µM and the Ki was 2.07 ± 0.07 µM. On human Rio1 [9], the “mode of inhibition of Rio1” value was “mixed inhibition”. In addition, at hRio1 [10], the “shift in Tm of human Rio1 bound to toyocamycin” value was 12.1 °C. For the same molecule, on hCK2α [2], the IC50 worked out at 54.8 ± 1.9 µM and the Ki came to 23.5 ± 0.8 µM.

The IC50 is the concentration needed to halve the response being measured. Broadly, the Ki is the dissociation constant of the complex between target and ligand, obtained from inhibition or displacement.
